Laboratory results from US4594329A, “CRF analogs” (The Salk Institute for Biological Studies, priority 1984, dated 1986).
Square brackets hold non-standard residues; d marks the D form. Peptide text beside a SMILES is read from it. * marks the point of attachment. hArg = N=C(N)NCCCC[C@H](N)C(=O)O; Nle = CCCC[C@H](N)C(=O)O; Bz = O=C(c1ccccc1)*

Tests used:
[1] = test system: cultured rat pituitary cells; assay: secretion of ACTH and β-endorphin by cultured rat pituitary cells; type: cell-based; settings: general procedure of Example III
Experimental: (§1) The synthetic peptide AHC and oCRF were examined for their effects on the secretion of ACTH and β-endorphin in vitro and was also in vivo. The potency of synthetic oCRF to stimulate the secretion of ACTH and β-endorphin by cultured rat pituitary cells was measured using the procedure as generally set forth in Endocrinology, 91, 562 (1972). […] In vivo testing is carried out using the general procedure set forth in C. Rivier et al., Science, 218, 377 (1982).

[2] = lowering of blood pressure, in vivo testing; settings: for lowering of blood pressure compared with rCRF: comparison with rCRF; for lowering of blood pressure: general procedure of Example III
Experimental: as §1

Row | Compound | stimulates the secretion of ACTH and β-END-LI [1] | lowering of blood pressure compared with rCRF [2] | lowering of blood pressure [2] | secretion of ACTH and β-END-LI, amount relative to oCRF ([1]; % of oCRF)
1 | H-SEEPPISLELTFHLLREVLE[Nle]ARAEQLAEQAHLNRKLMEII-NH2 [[Glu^9, Nle^21, Glu^29, Leu^33]-rCRF] | stimulates the secretion of ACTH and β-END-LI | to a greater extent than rCRF | very significant lowering of blood pressure | –
2 | H-SEEPPISLDLTFHLLREVLE[Nle]A[hArg]AEQLAQQAHLNRKLMEE[Nle]-NH2 | stimulates the secretion of ACTH and β-END-LI | – | very significant lowering of blood pressure | –
3 | CC[C@H](C)[C@H](NC(=O)[C@H](CC(=O)O)NC(=O)[C@H](CC(C)C)NC(=O)[C@H](CC(C)C)NC(=O)[C@H](CCCCN)NC(=O)[C@H](CCCNC(=N)N)NC(=O)[C@H](CC(N)=O)NC(=O)[C@H](CO)NC(=O)[C@H](Cc1c[nH]cn1)NC(=O)[C@H](C)NC(=O)[C@H](CCC(N)=O)NC(=O)[C@H](CCC(N)=O)NC(=O)[C@H](C)NC(=O)[C@H](CC(C)C)NC(=O)[C@H](CCC(N)=O)NC(=O)[C@H](CC(=O)O)NC(=O)[C@H](C)NC(=O)[C@H](CCCCN)NC(=O)[C@H](CC(=O)O)NC(=O)[C@H](CCSC)NC(=O)[C@H](CCC(=O)O)NC(=O)[C@H](CC(C)C)NC(=O)[C@@H](NC(=O)[C@H](CCC(=O)O)NC(=O)[C@H](CCCNC(=N)N)NC(=O)[C@H](CC(C)C)NC(=O)[C@H](CC(C)C)NC(=O)[C@H](Cc1c[nH]cn1)NC(=O)[C@H](Cc1ccccc1)NC(=O)[C@@H](NC(=O)[C@H](CC(C)C)NC(=O)[C@H](CC(=O)O)NC(=O)[C@H](CC(C)C)NC(=O)[C@H](CO)NC(=O)[C@@H](NC(=O)[C@H]1CCCN1)[C@@H](C)CC)[C@@H](C)O)C(C)C)C(=O)N[C@@H](C)C(N)=O [[D-Pro^4,Asp^22]-oCRF(4-41)] (H-[dP]ISLDLTFHLLREVLEMDKADQLAQQAHSNRKLLDIA-NH2) | stimulates the secretion of ACTH and β-END-LI | – | very significant lowering of blood pressure | –
4 | CCCC[C@H](NC(=O)[C@H](CCC(=O)O)NC(=O)[C@H](CC(C)C)NC(=O)[C@H](CCCC)NC(=O)[C@H](CCC(=O)O)NC(=O)[C@H](CCCNC(=N)N)NC(=O)[C@H](CC(C)C)NC(=O)[C@H](CC(C)C)NC(=O)[C@H](Cc1c[nH]cn1)NC(=O)[C@H](Cc1ccccc1)NC(=O)[C@@H](NC(=O)[C@H](CC(C)C)NC(=O)[C@H](CC(=O)O)NC(=O)[C@H](CC(C)C)NC(=O)[C@H](CO)NC(=O)[C@@H](NC(=O)[C@@H]1CCCN1C(=O)[C@@H]1CCCN1C(=O)[C@H](N)Cc1ccc(O)cc1)[C@@H](C)CC)[C@@H](C)O)C(=O)N[C@@H](C)C(=O)N[C@@H](CCCCN)C(=O)N[C@@H](C)C(=O)N[C@@H](CCC(=O)O)C(=O)N[C@@H](CCC(N)=O)C(=O)N[C@@H](CCC(=O)O)C(=O)N[C@@H](C)C(=O)N[C@@H](CCC(=O)O)C(=O)N[C@@H](CCC(N)=O)C(=O)N[C@@H](C)C(=O)N[C@@H](C)C(=O)N[C@@H](CC(C)C)C(=O)N[C@@H](CC(N)=O)C(=O)N[C@@H](CCCNC(=N)N)C(=O)N[C@@H](CC(C)C)C(=O)N[C@@H](CC(C)C)C(=O)N[C@@H](CC(C)C)C(=O)N[C@@H](CCC(=O)O)C(=O)N[C@@H](CCC(=O)O)C(=O)N[C@@H](C)C(N)=O [[D-Tyr^3, Nle^18,21]-AHC(3-41)] (H-[dY]PPISLDLTFHLLRE[Nle]LE[Nle]AKAEQEAEQAALNRLLLEEA-NH2) | stimulates the secretion of ACTH and β-END-LI | – | very significant lowering of blood pressure | –
5 | H-PPISIDLSLELLRKMIEIAKQEKEKEQAANNRLLMDTI-NH2 | stimulates the secretion of ACTH and β-END-LI | – | very significant lowering of blood pressure | –
6 | CCCC[C@H](NC(=O)[C@@H](NC(=O)[C@H](CC(C)C)NC(=O)[C@H](CC(=O)O)NC(=O)[C@H](CC(C)C)NC(=O)[C@H](CO)NC(=O)[C@@H](NC(=O)[C@@H]1CCCN1C(=O)[C@@H]1CCCN1C(=O)[C@H](CCC(=O)O)NC(=O)CNC(=O)c1ccccc1)[C@@H](C)CC)[C@@H](C)O)C(=O)N[C@@H](Cc1c[nH]cn1)C(=O)N[C@@H](CC(C)C)C(=O)N[C@@H](CC(C)C)C(=O)N[C@@H](CCCNC(=N)N)C(=O)N[C@@H](CCC(=O)O)C(=O)N[C@H](C(=O)N[C@@H](CC(C)C)C(=O)N[C@@H](CCC(=O)O)C(=O)N[C@@H](CCSC)C(=O)N[C@@H](C)C(=O)N[C@@H](CCCNC(=N)N)C(=O)N[C@@H](C)C(=O)N[C@@H](CCC(=O)O)C(=O)N[C@@H](CCC(N)=O)C(=O)N[C@@H](CC(C)C)C(=O)N[C@@H](C)C(=O)N[C@@H](CCC(=O)O)C(=O)N[C@@H](CCC(N)=O)C(=O)N[C@@H](C)C(=O)N[C@@H](Cc1c[nH]cn1)C(=O)N[C@@H](CO)C(=O)N[C@@H](CC(N)=O)C(=O)N[C@@H](CCCNC(=N)N)C(=O)N[C@@H](CCCNC(=N)N)C(=O)N[C@@H](CC(C)C)C(=O)N[C@@H](CCSC)C(=O)N[C@@H](CCC(=O)O)C(=O)N[C@H](C(=O)N[C@H](C(N)=O)[C@@H](C)CC)[C@@H](C)CC)C(C)C (Bz-GEPPISLDLT[Nle]HLLREVLEMARAEQLAEQAHSNRRLMEII-NH2) | stimulates the secretion of ACTH and β-END-LI | – | very significant lowering of blood pressure | –
7 | H-SQEPPISLELTFHLLRE[Nle]LE[Nle]AKAEQEAEQAALNRLLLEEA-NH2 [[Glu^9, Nle^18, 21]-AHC] | stimulates the secretion of ACTH and β-END-LI | – | very significant lowering of blood pressure | –
8 | CCCC[C@H](NC(=O)[C@H](CCC(=O)O)NC(=O)[C@H](CC(C)C)NC(=O)[C@H](CCCC)NC(=O)[C@H](CCC(=O)O)NC(=O)[C@H](CCCNC(=N)N)NC(=O)[C@H](CC(C)C)NC(=O)[C@H](CC(C)C)NC(=O)[C@H](Cc1c[nH]cn1)NC(=O)[C@H](Cc1ccccc1)NC(=O)[C@@H](NC(=O)[C@H](CC(C)C)NC(=O)[C@H](CC(=O)O)NC(=O)[C@H](CC(C)C)NC(=O)[C@H](CO)NC(=O)[C@@H](NC(=O)[C@@H]1CCCN1C(=O)[C@H]1CCCN1C(=O)[C@H](N)Cc1ccc(O)cc1)[C@@H](C)CC)[C@@H](C)O)C(=O)N[C@@H](C)C(=O)N[C@@H](CCCCN)C(=O)N[C@@H](C)C(=O)N[C@@H](CCC(=O)O)C(=O)N[C@@H](CCC(N)=O)C(=O)N[C@@H](CCC(=O)O)C(=O)N[C@@H](C)C(=O)N[C@@H](CCC(=O)O)C(=O)N[C@@H](CCC(N)=O)C(=O)N[C@@H](C)C(=O)N[C@@H](C)C(=O)N[C@@H](CC(C)C)C(=O)N[C@@H](CC(N)=O)C(=O)N[C@@H](CCCNC(=N)N)C(=O)N[C@@H](CC(C)C)C(=O)N[C@@H](CC(C)C)C(=O)N[C@@H](CC(C)C)C(=O)N[C@@H](CCC(=O)O)C(=O)N[C@@H](CCC(=O)O)C(=O)N[C@@H](C)C(N)=O [[D-Tyr^3, D-Pro^4, Nle^18,21]-AHC(3-41)] (H-[dY][dP]PISLDLTFHLLRE[Nle]LE[Nle]AKAEQEAEQAALNRLLLEEA-NH2) | – | – | very significant lowering of blood pressure | about 470%
9 | H-SEEPPISLDLTFHLLREVLEMTRAEQLAEQAHSNRKLMEEI-NH2 [[Thr^22, Glu^29,40]-rCRF] | stimulates the secretion of ACTH and β-END-LI | – | very significant lowering of blood pressure | –
10 | Ac-PPISLDLTFHLLREVLEMARAEQLAEQAHSNRKYMEEI-NH2 | stimulates the secretion of ACTH and β-END-LI | to a greater extent than rCRF | very significant lowering of blood pressure | –
